Experimental findings from ChEMBL document CHEMBL1201862, “PubChem BioAssay data set” (2004) are described below.

Some test systems named below: DMS-273; SNB-78; LXFL 529; XF498; M19-MEL; DMS-114; DLD-1; HOP-18; RXF 631.
Common to all, as to assay: NCI anticancer screen, dose series, 48 h

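All cell lines were grown in 96-well plates and treated with compound for 48 hours. At the GI50, growth is halved.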 Active and inactive are the calls of the source. Cut-off read from the data, not from the text of the source: active = GI50 up to about 1.1 µM and inactive = higher. Numbered stars: 1 amine (or outer) side, 2 acyl side, 3 side chain; on linkers, the order of the positions; unused ones are H or OH. Square brackets hold non-standard residues; d marks the D form. Peptide text beside a SMILES is read from it. X55 = CC[C@H](C)[C@H](OC(=O)[C@@H](C)[C@@H](CC)N[*:1])C(=O)[*:2]; X31 = C[C@H](N[*:1])C(=O)C(C)(C)C(=O)[*:2]; NMeY = CN[C@@H](Cc1ccc(O)cc1)C(=O)O; NMeL = CN[C@@H](CC(C)C)C(=O)O; NMeV = CN[C@H](C(=O)O)C(C)C Some results are limits rather than exact numbers.

For the compound `CCN(CC)c1ccc(C(=O)c2ccccc2C(=O)O)c(O)c1`, the GI50 with DMS-273, with SNB-78, in the assay with LXFL 529, with XF498, in the assay with M19-MEL and with DMS-114 was > 100 µM (inactive) throughout.

For the compound `S=C(Nc1ccccc1)N1N=C2c3ccccc3CC[C@H]2[C@@H]1c1ccccc1`, the GI50 in the assay on DLD-1 is 9.42 µM (inactive); in the assay on SNB-78, 0.708 µM (active); in the assay with LXFL 529, 5.52 µM (inactive); in the assay on XF498, > 100 µM (inactive); with M19-MEL, 1.83 µM (inactive); in the assay with HOP-18, 6.21 µM (inactive). For the same compound, in the assay on DMS-114, the GI50 is 2.29 µM (inactive).

As to `CCOc1ccccc1NC(=O)CCC(=O)OC`, the GI50 with DMS-273 is > 100 µM (inactive); with DLD-1 it was > 83 µM (inactive); in the assay on SNB-78 it was > 100 µM (inactive); in the assay on LXFL 529, > 100 µM (inactive); in the assay on XF498, > 100 µM (inactive); with M19-MEL, > 100 µM (inactive). For the same compound, the values for the GI50 in the assay with HOP-18 and with DMS-114 were > 100 µM (inactive) and > 61.1 µM (inactive), respectively.

Take `Cn1cc(NC(=O)c2cc(NC(=O)CCCCCCCCCC(=O)Nc3cc(C(=O)Nc4cc(C(=O)NCCC(=N)N)n(C)c4)n(C)c3)cn2C)cc1C(=O)NCCC(=N)N`: the GI50 is 33.2 µM (inactive) with DMS-273; 34.2 µM (inactive) with DLD-1; 37.2 µM (inactive) in the assay with SNB-78; 24.5 µM (inactive) in the assay with LXFL 529; 32.9 µM (inactive) in the assay on XF498; 34.1 µM (inactive) in the assay with M19-MEL. For the same compound, the GI50 in the assay on HOP-18 is 35.3 µM (inactive); in the assay on DMS-114 it was 84.9 µM (inactive).

On to `N#C/C(=C\c1ccccc1)C(NO)Nc1ccccc1` (stereo unspecified), for which the GI50 in the assay with DMS-273 was > 100 µM (inactive); with DLD-1 it was > 100 µM (inactive); in the assay with SNB-78, 83.2 µM (inactive); with LXFL 529, 60.3 µM (inactive); in the assay with M19-MEL, > 100 µM (inactive); in the assay with HOP-18, > 100 µM (inactive).

Take `O=C(Nc1ccc(Cl)c(Cl)c1)C(=O)C(C(=O)c1ccccc1-c1ccccc1)C1OC(=O)c2ccccc21` (stereo unspecified): the GI50 in the assay with DLD-1 is 14.8 µM (inactive); in the assay with SNB-78, 10.4 µM (inactive); in the assay with LXFL 529 it was 8.81 µM (inactive); in the assay on XF498, 12.8 µM (inactive); in the assay on M19-MEL it was 13.1 µM (inactive); in the assay on RXF 631, 14.3 µM (inactive). Also, in the assay with DMS-114, the GI50 is 12.1 µM (inactive).

On to `C#Cc1cc(CN(CC(=O)OC(C)(C)C)CC(=O)OC(C)(C)C)nc(CN(CC(=O)OC(C)(C)C)CC(=O)OC(C)(C)C)c1`, for which the GI50 with DMS-273 is 5.89 µM (inactive); in the assay on SNB-78 it was 6.14 µM (inactive); in the assay on LXFL 529 it was 3.46 µM (inactive); with XF498 it was 11.6 µM (inactive); in the assay with M19-MEL, 6.4 µM (inactive); in the assay on RXF 631, 11.9 µM (inactive). Also, the GI50 in the assay with DMS-114 is 3.26 µM (inactive).

In the case of `O=C1[C@@H]2C(c3ccc(Cl)cc3Cl)=NO[C@@H]2C(=O)N1c1ccc(Cc2ccc(N3C(=O)[C@H]4C(c5ccc(Cl)cc5Cl)=NO[C@H]4C3=O)cc2)cc1`, the GI50 in the assay with DMS-273 was > 100 µM (inactive); in the assay with DLD-1, > 100 µM (inactive); in the assay with SNB-78, 46.8 µM (inactive); in the assay on LXFL 529 it was 15.6 µM (inactive); with XF498 it was > 100 µM (inactive); with M19-MEL, > 100 µM (inactive). Moreover, the GI50 was > 100 µM (inactive) with HOP-18 and 39.5 µM (inactive) with DMS-114.

Consider `Cc1cc(NS(=O)(=O)c2ccc(NC(=O)c3cccc4c(Nc5ccc(S(=O)(=O)Nc6cc(C)on6)cc5)c5ccccc5nc34)cc2)no1`, for which the GI50 with DMS-273 is > 100 µM (inactive); with DLD-1, > 100 µM (inactive); with SNB-78 it was 35.1 µM (inactive); in the assay with LXFL 529, 24.7 µM (inactive); in the assay on XF498 it was 42.3 µM (inactive); in the assay with M19-MEL it was 35.8 µM (inactive). Further, the GI50 with HOP-18 is 19.4 µM (inactive); in the assay with DMS-114, 35.2 µM (inactive).

Regarding `CC1=NN(C(=O)c2ccc(Cl)cc2)C(=O)/C1=C/c1ccco1`, the GI50 in the assay with DLD-1 was > 100 µM (inactive); in the assay with SNB-78 it was 46.1 µM (inactive); with LXFL 529, > 100 µM (inactive); in the assay with XF498 it was > 100 µM (inactive); with M19-MEL, > 100 µM (inactive); in the assay on DMS-114 it was > 100 µM (inactive).

In the case of `COc1ccc(C2CCC(Cl)(OC)CC2C=O)cc1` (stereo unspecified), the GI50 was 53.7 µM (inactive) in the assay with DMS-273; 91.4 µM (inactive) in the assay on DLD-1; > 100 µM (inactive) in the assay on LXFL 529; 32.1 µM (inactive) in the assay on M19-MEL; 68.9 µM (inactive) in the assay on HOP-18; 27.5 µM (inactive) in the assay with DMS-114.

`Cc1ccc(NC(=O)C2C(=O)C(=O)N(c3ccc(C)cc3)C2=O)cc1` (stereo unspecified): the GI50 in the assay with DLD-1, in the assay with SNB-78, in the assay on LXFL 529, with M19-MEL, in the assay with HOP-18 and in the assay on DMS-114 was > 100 µM (inactive) throughout.

In the case of `CC(C)(C)N/N=N/c1cn(C2OC(CO)C(O)C2O)c(=O)[nH]c1=O` (stereo unspecified), the GI50 is > 100 µM (inactive) in the assay with DMS-273; 43.3 µM (inactive) with DLD-1; > 100 µM (inactive) with SNB-78; > 100 µM (inactive) in the assay on LXFL 529; > 100 µM (inactive) in the assay on M19-MEL; > 100 µM (inactive) in the assay on HOP-18. For the same compound, the GI50 with DMS-114 was 40.3 µM (inactive).

Turning to `CN1CCS(=O)(=O)NC(Cc2ccccc2)C(=O)N2CCCC2C1=O` (stereo unspecified), the GI50 with DMS-273, with DLD-1, with SNB-78, in the assay with LXFL 529, in the assay on XF498 and in the assay with M19-MEL was > 100 µM (inactive) each time. The GI50 in the assay on HOP-18 and with DMS-114 was > 100 µM (inactive) throughout.

Turning to `CC1C[C@H](OC(N)=O)C(C)CC1=O` (stereo partly specified), the GI50 with DMS-273, in the assay on DLD-1, in the assay on SNB-78, in the assay on LXFL 529, in the assay with XF498 and in the assay with M19-MEL was > 100 µM (inactive) each time. Also, the GI50 in the assay on HOP-18 and in the assay on DMS-114 was > 100 µM (inactive) throughout.

Regarding `COc1cc(CCc2ccc(OC(C)=O)cc2)cc(OC)c1OC`, the GI50 with DMS-273, with DLD-1, in the assay with SNB-78, in the assay on LXFL 529, in the assay with M19-MEL and in the assay with HOP-18 was > 100 µM (inactive) in each case. Further, in the assay on DMS-114, the GI50 is 55 µM (inactive).

Consider `CC[C@H](C)[C@@H]1OC(=O)[C@@H](C)[C@@H](CC)NC(=O)[C@H](C)NC(=O)C(C)(C)C(=O)[C@H](C)NC(=O)[C@H](Cc2ccc(OC)cc2)N(C)C(=O)[C@H](C(C)C)N(C)C(=O)CNC(=O)[C@H](CC(C)C)N(C)C(=O)CNC1=O` [DOLASTATIN 11] (cyclo(A[X55]G[NMeL]G[NMeV][NMeY](Me)[X31])), for which the GI50 in the assay on DMS-273 is 0.01 µM (active); in the assay with DLD-1, < 0.0361 µM (active); in the assay with SNB-78, 0.0514 µM (active); in the assay with LXFL 529, < 0.0166 µM (active); in the assay with XF498 it was 0.0248 µM (active); in the assay on M19-MEL, 0.344 µM (active). The GI50 in the assay on HOP-18 was < 0.0118 µM (active); with DMS-114, < 0.0203 µM (active).
